Holding throughout (type): functional, cell-based
The target of assay [1] is High affinity nerve growth factor receptor (Rattus norvegicus) (UniProt P35739). In words: Induction of NGF receptor-induced differentiation of PC12 cells at 100 and 10 ug/ml. As to conditions: PC-12.
The test system of assay [2] is PC-12. In words: Induction of PC12 cell differentiation at 100 ug/ml. The settings on record: Rattus norvegicus.
Assay [3] has as its system PC-12. Nature of the assay: Inhibition of PC12 cell differentiation at 100 ug/ml (No effect). As to conditions: Rattus norvegicus.
Assay [4] addresses High affinity nerve growth factor receptor (Rattus norvegicus) (UniProt P35739). Nature of the assay: Inhibition of NGF receptor-induced differentiation of PC12 cells at 100 ug/ml (No effect). The settings on record: PC-12.
For assay [5] the target is unchanged. In words: Induction of NGF receptor-induced differentiation of PC12 cells at 1-100 ug/ml. As to conditions: PC-12.

Active and inactive are the calls of the source. No cut-off for these calls is given here.

Sequence of High affinity nerve growth factor receptor (Rattus norvegicus) (P35739 whole entry): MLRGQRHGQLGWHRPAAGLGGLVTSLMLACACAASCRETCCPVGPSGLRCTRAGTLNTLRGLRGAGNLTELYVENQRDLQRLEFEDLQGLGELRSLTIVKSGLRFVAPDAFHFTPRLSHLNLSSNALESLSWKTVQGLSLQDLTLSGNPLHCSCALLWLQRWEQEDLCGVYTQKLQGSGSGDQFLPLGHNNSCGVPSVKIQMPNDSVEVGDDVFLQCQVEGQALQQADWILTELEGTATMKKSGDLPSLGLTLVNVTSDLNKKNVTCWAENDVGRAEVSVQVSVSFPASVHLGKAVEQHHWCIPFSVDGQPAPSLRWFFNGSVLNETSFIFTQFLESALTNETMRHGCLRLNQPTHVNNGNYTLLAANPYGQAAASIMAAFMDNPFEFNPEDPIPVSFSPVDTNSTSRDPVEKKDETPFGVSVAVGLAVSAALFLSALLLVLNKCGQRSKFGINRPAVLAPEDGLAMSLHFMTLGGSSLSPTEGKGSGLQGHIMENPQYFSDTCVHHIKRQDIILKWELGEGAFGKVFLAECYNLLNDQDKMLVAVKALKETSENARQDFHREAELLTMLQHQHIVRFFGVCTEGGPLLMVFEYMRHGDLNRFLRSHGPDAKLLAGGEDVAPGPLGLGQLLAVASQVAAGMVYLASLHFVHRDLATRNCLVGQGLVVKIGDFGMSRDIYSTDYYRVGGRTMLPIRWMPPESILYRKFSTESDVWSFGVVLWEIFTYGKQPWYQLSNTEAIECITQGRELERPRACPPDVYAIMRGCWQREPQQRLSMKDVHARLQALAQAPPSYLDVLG

With `NC(=O)c1csc([C@@H]2C[C@H](CO)C2CO)n1` (stereo not given in full), the Induction result (in assay [1]; in the assay with PC-12 [2]) was “Active” throughout.

As for `NC(=O)c1csc([C@@H]2O[C@H](CO)C2CO)n1` (stereo not given in full), the NA entry (with PC-12 [3]; in assay [4]) was “inactive” throughout.

For `NC(=O)c1csc([C@@H]2O[C@H](CO)C(O)[C@H]2O)n1` (single isomer, unassigned), the result in assay [5] was Active.
